Experimental data taken from patent US20150105252A1, “SUBSTITUTED PYRAZOLES AS HERBICIDES” (E I DU PONT DE NEMOURS AND COMPANY, priority 2013, published 2015).

Columns and labels:
crabgrass, large = assay: Test C preemergence; type: in vivo, Digitaria sanguinalis; settings: for Crabgrass, Large plant response rating / Plant response rating, Crabgrass, Large: preemergence; for Plant response rating, Crabgrass, Large: 125 g ai/ha, scale 0 to 100, 0 = no effect, 100 = complete control
Summary of the method: (§1)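 Postemergence values come from plants sprayed at the 1- to 4-leaf stage (2–18 cm) in peat moss–vermiculite medium; preemergence values from seeds treated in a loam–sand blend. Both evaluated visually against controls after 13–15 greenhouse days, scale 0–100.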

chickweed = assay: Test C postemergence; type: in vivo, Stellaria media; settings: for Plant response rating (scale of 0 to 100 where 0 is no effect and 100 is complete control), Chickweed: Postemergence, 31 g ai/ha, visually evaluated after 13 to 15 days; for Chickweed plant response rating / Plant response rating, Chickweed: postemergence; for Chickweed plant response rating: 62 g ai/ha, scale 0 to 100
Summary of the method: as §1

galium = assay: Test C postemergence; type: in vivo, Galium aparine; settings: for Plant response rating (scale of 0 to 100 where 0 is no effect and 100 is complete control), Galium: Postemergence, 31 g ai/ha, visually evaluated after 13 to 15 days; for Galium plant response rating / Plant response rating, Galium: postemergence; for Galium plant response rating: 62 g ai/ha, scale 0 to 100
Summary of the method: as §1

foxtail, giant [1] = assay: Test C preemergence; type: in vivo, Setaria faberii; settings: for Foxtail, Giant plant response rating / Plant response rating, Foxtail, Giant: preemergence; for Plant response rating, Foxtail, Giant: 125 g ai/ha, scale 0 to 100, 0 = no effect, 100 = complete control
Summary of the method: as §1

johnsongrass = assay: Test C postemergence; type: in vivo, Sorghum halepense; settings: for Plant response rating (scale of 0 to 100 where 0 is no effect and 100 is complete control), Johnsongrass: Postemergence, 31 g ai/ha, visually evaluated after 13 to 15 days; for Johnsongrass plant response rating / Plant response rating, Johnsongrass: postemergence; for Johnsongrass plant response rating: 62 g ai/ha, scale 0 to 100
Summary of the method: as §1

waterhemp [2] = assay: Test C postemergence; type: in vivo, Amaranthus rudis; settings: for Plant response rating, Waterhemp / Waterhemp plant response rating: postemergence; for Waterhemp plant response rating: scale 0 to 100
Text: Seeds of plant species selected from blackgrass (Alopecurus myosuroides), ryegrass, Italian (Italian ryegrass, Lolium multiflorum), wheat (winter wheat, Triticum aestivum), galium (catchweed bedstraw, Galium aparine), corn (Zea mays), crabgrass, large (large crabgrass, Digitaria sanguinalis), foxtail, giant (giant foxtail, Setaria faberii), johnsongrass (Sorghum halepense), lambsquarters (Chenopodium album), morningglory (Ipomoea coccinea), nutsedge, yellow (yellow nutsedge, Cyperus esculentus), pigweed (redroot pigweed, Amaranthus retroflexus), ragweed (common ragweed, Ambrosia elation), soybean (Glycine max), barnyardgrass (Echinochloa crus-galli), oilseed rape (Brassica napus), waterhemp (common waterhemp, Amaranthus rudis), oat, wild (wild oat, Avena fatua), kochia (Kochia scoparia), Surinam grass (Brachiaria decumbens), foxtail, green (green foxtail, Setaria viridis), goosegrass (Eleusine indica), bromegrass, downy (downy bromegrass, Bromus tectorum), nightshade (eastern black nightshade, Solanum ptycanthum), cocklebur (common cocklebur, Xanthium strumarium), cupgrass, woolly (woolly cupgrass, Eriochloa villosa), bermudagrass (Cynodon dactylon), sunflower, (common oilseed sunflower, Helianthus annuus), Russian thistle (Salsola kali), and velvetleaf (Abutilon theophrasti) were planted into a blend of loam soil and sand and treated preemergence with test chemicals formulated in a non-phytotoxic solvent mixture which included a surfactant.
At the same time, plants selected from these crop and weed species and also chickweed (common chickweed, Stellaria media), canarygrass (littleseed canarygrass, Phalaris minor), and deadnettle (henbit deadnettle, Lamium amplexicaule), were planted in pots containing Redi-Earth® planting medium (Scotts Company, 14111 Scottslawn Road, Marysville, Ohio 43041) comprising spaghnum peat moss, vermiculite, wetting agent and starter nutrients and treated with postemergence applications of test chemicals formulated in the same manner. Plants ranged in height from 2 to 18 cm (1- to 4-leaf stage) for postemergence treatments. Treated plants and controls were maintained in a greenhouse for 13 to 15 days, after which time all species were compared to controls and visually evaluated. Plant response ratings, summarized in Table C, are based on a scale of 0 to 100 where 0 is no effect and 100 is complete control. A dash (-) response means no test result.

waterhemp [3] = assay: Test C preemergence; type: in vivo, Amaranthus rudis; settings: for Waterhemp plant response rating / Plant response rating, Waterhemp: preemergence; for Plant response rating, Waterhemp: 125 g ai/ha, scale 0 to 100, 0 = no effect, 100 = complete control
Summary of the method: as §1

foxtail, giant [4] = assay: Test C postemergence; type: in vivo, Setaria faberii; settings: for Plant response rating (scale of 0 to 100 where 0 is no effect and 100 is complete control), Foxtail, Giant: Postemergence, 31 g ai/ha, visually evaluated after 13 to 15 days; for Foxtail, Giant plant response rating / Plant response rating, Foxtail, Giant: postemergence; for Foxtail, Giant plant response rating: 62 g ai/ha, scale 0 to 100
Summary of the method: as §1

ducksalad = assay: Test B flood; type: in vivo, Heteranthera limosa; settings: 250 g ai/ha, visual rating on 0 to 100 scale (0 no effect, 100 complete control), 13 to 15 days
Summary of the method: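 Response scored visually, 0–100 relative to controls, 13–15 days after the compound was applied into paddy water; plants were at the 2-leaf stage in pots kept flooded to 3 cm.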

oat, wild = assay: Test C postemergence; type: in vivo, Avena fatua; settings: for Plant response rating (scale of 0 to 100 where 0 is no effect and 100 is complete control), Oat, Wild: Postemergence, 31 g ai/ha, visually evaluated after 13 to 15 days; for Oat, Wild plant response rating / Plant response rating, Oat, Wild: postemergence; for Oat, Wild plant response rating: 62 g ai/ha, scale 0 to 100
Summary of the method: as §1

foxtail, giant [5] = assay: Test A preemergence; type: in vivo, Setaria faberii; settings: preemergence
Summary of the method: (§2)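 Injury readout: eye-scored versus untreated controls, 0 to 100. Exposure period: ~10 days, greenhouse. Application: soil-directed spray over sown seed (pre) or spray on seedlings 2–10 cm tall with one or two leaves (post), compound carried in non-phytotoxic solvent including surfactant.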

foxtail, giant [6] = assay: Test A postemergence; type: in vivo, Setaria faberii
Summary of the method: as §2

[7] = 31 g ai/ha, visual rating, scale 0 to 100 (0 no effect, 100 complete control), 13 to 15 days
[8] = 62 g ai/ha, scale 0 to 100 (0 no effect, 100 complete control), 13 to 15 days
[9] = 250 g ai/ha, scale 0 to 100, 0 is no effect, 100 is complete control
[10] = 250 g ai/ha, scale 0 to 100 (0 no effect, 100 complete control)
[11] = 125 g ai/ha, scale 0 to 100, 0 no effect, 100 complete control
[12] = 500 g ai/ha, visual injury after approx. 10 days, 0 to 100 scale (0 no effect, 100 complete control)
[13] = Postemergence, 500 g ai/ha, 0 to 100 scale (0 no effect, 100 complete control)
[14] = postemergence, 125 g ai/ha, about 10 days, visual rating on 0 to 100 scale (0 no effect, 100 complete control)

SMILES: CCCc1cc(C(=O)NC2CC2)nn1Cc1ccnc(OC(F)F)c1 [Compound 205]
- Crabgrass, Large plant response rating (crabgrass, large; [7]): 100
- Crabgrass, Large plant response rating (crabgrass, large; [8]): 100
- Plant response rating, Crabgrass, Large (crabgrass, large; 13 to 15 days): 100
- Crabgrass, Large plant response rating (crabgrass, large; [9]): 100
- Plant response rating (scale of 0 to 100 where 0 is no effect and 100 is complete control), Chickweed (chickweed): 65
- Chickweed plant response rating (chickweed): 90
- Plant response rating, Chickweed (chickweed; [10]): 100
- Plant response rating, Chickweed (chickweed; [11]): 98
- Plant response rating (scale of 0 to 100 where 0 is no effect and 100 is complete control), Galium (galium): 65
- Galium plant response rating (galium): 80
- Plant response rating, Galium (galium; [10]): 80
- Plant response rating, Galium (galium; [11]): 80
- Foxtail, Giant plant response rating (foxtail, giant [1]; [7]): 100
- Foxtail, Giant plant response rating (foxtail, giant [1]; [8]): 100
- Plant response rating, Foxtail, Giant (foxtail, giant [1]; 13 to 15 days): 100
- Foxtail, Giant plant response rating (foxtail, giant [1]; [9]): 100
- Plant response rating (scale of 0 to 100 where 0 is no effect and 100 is complete control), Johnsongrass (johnsongrass): 5
- Johnsongrass plant response rating (johnsongrass): 10
- Plant response rating, Johnsongrass (johnsongrass; [10]): 45
- Plant response rating, Johnsongrass (johnsongrass; [11]): 20
- Plant response rating, Waterhemp (waterhemp [2]; [10]): 85
- Waterhemp plant response rating (waterhemp [2]): 70
- Waterhemp plant response rating (waterhemp [3]; [7]): 100
- Waterhemp plant response rating (waterhemp [3]; [8]): 100
- Plant response rating, Waterhemp (waterhemp [3]; 13 to 15 days): 100
- Waterhemp plant response rating (waterhemp [3]; [9]): 100
- Plant response rating (scale of 0 to 100 where 0 is no effect and 100 is complete control), Foxtail, Giant (foxtail, giant [4]): 20
- Foxtail, Giant plant response rating (foxtail, giant [4]): 35
- Plant response rating, Foxtail, Giant (foxtail, giant [4]; [10]): 65
- Plant response rating, Foxtail, Giant (foxtail, giant [4]; [11]): 70
- Plant response rating, Ducksalad (ducksalad): 100
- Plant response rating (scale of 0 to 100 where 0 is no effect and 100 is complete control), Oat, Wild (oat, wild): 5
- Oat, Wild plant response rating (oat, wild): 5
- Plant response rating, Oat, Wild (oat, wild; [10]): 10
- Plant response rating, Oat, Wild (oat, wild; [11]): 5
- Foxtail, Giant plant response rating (0 to 100 scale) (foxtail, giant [5]; 125 g ai/ha, visual injury approx. 10 days after treatment): 100
- Foxtail, Giant plant response rating (foxtail, giant [5]; [12]): 100
- Foxtail, Giant plant response rating (foxtail, giant [6]; [13]): 90
- Foxtail, Giant plant response rating (foxtail, giant [6]; [14]): 90

SMILES: CCCc1cc(C(=O)NCC(F)(F)F)nn1Cc1ccnc(OC(F)F)c1 [Compound 127]
- Plant response rating (scale of 0 to 100), Crabgrass, Large (crabgrass, large; Preemergence, 250 g ai/ha): 100
- Crabgrass, Large plant response rating (crabgrass, large; [7]): 80
- Crabgrass, Large plant response rating (crabgrass, large; [8]): 100
- Plant response rating, Crabgrass, Large (crabgrass, large; 13 to 15 days): 100
- Plant response rating (scale of 0 to 100 where 0 is no effect and 100 is complete control), Chickweed (chickweed): 75
- Chickweed plant response rating (chickweed): 80
- Plant response rating, Chickweed (chickweed; [10]): 80
- Plant response rating, Chickweed (chickweed; [11]): 80
- Plant response rating (scale of 0 to 100 where 0 is no effect and 100 is complete control), Galium (galium): 70
- Galium plant response rating (galium): 70
- Plant response rating, Galium (galium; [10]): 80
- Plant response rating, Galium (galium; [11]): 70
- Plant response rating (scale of 0 to 100), Foxtail, Giant (foxtail, giant [1]; Preemergence, 250 g ai/ha): 98
- Foxtail, Giant plant response rating (foxtail, giant [1]; [7]): 98
- Foxtail, Giant plant response rating (foxtail, giant [1]; [8]): 100
- Plant response rating, Foxtail, Giant (foxtail, giant [1]; 13 to 15 days): 100
- Plant response rating (scale of 0 to 100 where 0 is no effect and 100 is complete control), Johnsongrass (johnsongrass): 5
- Johnsongrass plant response rating (johnsongrass): 5
- Plant response rating, Johnsongrass (johnsongrass; [10]): 25
- Plant response rating, Johnsongrass (johnsongrass; [11]): 30
- Plant response rating (scale of 0 to 100 where 0 is no effect and 100 is complete control), Waterhemp (waterhemp [2]; Postemergence, 31 g ai/ha, visually evaluated after 13 to 15 days): 50
- Waterhemp plant response rating (waterhemp [2]; 62 g ai/ha): 65
- Plant response rating, Waterhemp (waterhemp [2]; [10]): 70
- Plant response rating, Waterhemp (waterhemp [2]; [11]): 70
- Plant response rating (scale of 0 to 100), Waterhemp (waterhemp [3]; Preemergence, 250 g ai/ha): 100
- Waterhemp plant response rating (waterhemp [3]; [7]): 100
- Waterhemp plant response rating (waterhemp [3]; [8]): 100
- Plant response rating, Waterhemp (waterhemp [3]; 13 to 15 days): 100
- Plant response rating (scale of 0 to 100 where 0 is no effect and 100 is complete control), Foxtail, Giant (foxtail, giant [4]): 10
- Foxtail, Giant plant response rating (foxtail, giant [4]): 15
- Plant response rating, Foxtail, Giant (foxtail, giant [4]; [10]): 35
- Plant response rating, Foxtail, Giant (foxtail, giant [4]; [11]): 15
- Plant response rating, Ducksalad (ducksalad): 95
- Plant response rating (scale of 0 to 100 where 0 is no effect and 100 is complete control), Oat, Wild (oat, wild): 5
- Oat, Wild plant response rating (oat, wild): 5
- Plant response rating, Oat, Wild (oat, wild; [10]): 35
- Plant response rating, Oat, Wild (oat, wild; [11]): 5
- Foxtail, Giant plant response rating (foxtail, giant [5]; 125 g ai/ha, visual injury, 0 to 100 scale, approx. 10 days): 90
- Foxtail, Giant plant response rating (foxtail, giant [5]; [12]): 100
- Foxtail, Giant plant response rating (foxtail, giant [6]; [13]): 90
- Foxtail, Giant plant response rating (foxtail, giant [6]; [14]): 90
